{"source": "patent US20070261950A1", "about": "“IONIZED WATER AND METHOD OF PRODUCING SAME” (priority 2006, published 2007)", "key": {"[1]": {"system": "RAW264.7 cells", "assay": "Intracellular ROS induced by LPS in RAW264.7 cells (C400 fluorescence, confocal microscopy)", "assay_type": "cell-based, mouse", "conditions": "24 hours", "protocol": "More specifically, RAW264.7 cells were incubated in 10% FBS containing α-MEM dissolved in a) 0.12% NaCl, b) 0.12% NaCl+85 ppm NaClO, or c) NIW. The cells were incubated in the presence or absence of E. coli LPS (1 μg/ml) for 24 hours. The cells were stained with Fluorescein-derivative ROS reacting reagent, 5-(and 6)-carboxy-2′,7′-dichlorodihydrofluorescein diacetate (#C400, Molecular Probes). The C400 only reacts with ROS and develops fluorescence emission at a wavelength range of 517-527 nm. The staining pattern was analyzed by 0.3 μm sequential optical sectioning at ×400 or ×1000 magnification with a Leica™ TCS/SP-2 laser scan confocal microscope."}, "[2]": {"system": "RAW264.7 cells", "assay": "IL-1β production by peptidoglycan-stimulated RAW264.7 cells (ELISA)", "assay_type": "cell-based, mouse", "conditions": "peptidoglycan 5 μg/ml, 24 hours; 25% NIW, 75% DIW; DH-DIW; NaClO 100 ppm", "protocol": "Next, the effects of NIW generated from 0.12% NaCl solution or water containing DH (dissolved hydrogen) on proinflammatory cytokine, IL-1β, production by the RAW264.7 cells in vitro was studied. Briefly, mouse RAW264.7 cells in 96-well tissue culture plates were stimulated with 5 μg/ml of peptidoglycan (Staphylococcus aureus origin, from Sigma) in NIW-based complete medium of α-MEM (25% NIW, 75% DIW) or DIW-based α-MEM (100% DIW). Hydrogen was dissolved in DIW for two days (DH-DIW) or NaClO (100 ppm) was additionally added to DIW. All media used in this assay were supplemented with FBS (10%). After 24 hours of incubation, culture supernatants were collected from the 96-well plates and diluted in an equal volume of PBS containing 0.05% Tween 20 detergent (PBST). A commercially available ELISA kit for IL-1β was employed to measure the concentration of IL-1β in the culture supernatants."}}, "data": [{"smiles": "OCl", "note": "[sodium hypochlorite (NaClO) water, sodium hypochlorite]", "values": [{"measurement": "LPS-dependent intracellular ROS induction", "setting": "[1]; E. coli LPS 1 μg/ml", "value": "LPS treatment induced intracellular ROS"}, {"measurement": "intracellular ROS in the absence of LPS", "setting": "[1]; no LPS", "value": "did not show intracellular ROS"}, {"measurement": "IL-1β production", "setting": "[2]", "value": "augmented the mitogenic activity of the peptidoglycan"}]}]}
